Test results reported in US20250127898A1, “PHOTODYNAMIC THERAPY AND DIAGNOSIS” (RMW CHO Group Limited, priority 2021, published 2025).
Where two headings read alike, the source gives them in different places.

Legend:
[1] = test system: Human ovarian cancer cell line SKOV3; assay: Phototoxicity in SKOV3 cells after 660 nm laser or LED activation (AlamarBlue viability); format: cell-based; conditions: SKOV3 cells; for IC90: 24 hours uptake, 50 mW/cm^2 for 5 mins (15 J/cm^2)
Description: Samples were stored at 4° C. protected from light. […] All data are shown as mean±SD (where appropriate). […] Laser and LED exposure induce an equivalent response in relation to phototoxicity. Following activation, cells were cultured for a further 24 hours. Media was then replaced with fresh media containing AlamarBlue, and % viable cells remaining assessed as above. Controls included cells treated with reduced chlorin analogues but not activated by laser light; cells without reduced chlorin analogue treatment but with laser light; and untreated controls. All measurements were made in quadruplicate.

[2] = test system: Human ovarian cancer cell line SKOV3; assay: Inherent cytotoxicity (dark toxicity) in SKOV3 cells (AlamarBlue viability); format: cell-based
Description: Photosensitizers (e.g. chlorin analogue, chlorin e4 disodium (provided by Advanced Molecular Technologies, Scoresby) or Talaporfin sodium (purchased from Focus Bioscience cat #HY-16477-5MG)) were resuspended in 100% dimethylsulfoxide (DMSO) at a concentration of 5.5 mM. Samples were stored at 4° C. protected from light.
All data are shown as mean±SD (where appropriate).
Untreated cells were used as a control. […] All measurements were made in quadruplicate.

[3] = test system: indomethacin-induced gastric lesions; conditions: rats; background statement; cited from earlier work
[4] = test system: TAA- or CCl4-induced acute liver injuries; conditions: mice; background statement; cited from earlier work
[5] = test system: C57BL/6 mice; assay: Acute toxicity after intraperitoneal injection into mice; format: in vivo; conditions: 5 mg/kg intraperitoneal, observed for 30 mins, prepared with 1% PVP in PBS+20 mM HEPES
Description: To assess acute toxicity, reduced phyllochlorin or chlorin e4 disodium (each prepared with 1% PVP in PBS+20 mM HEPES) were administered at a dose of 5 mg/kg to C57BL/6 mice by intraperitoneal injection.

[6] = Estimated pKa of the carboxylic acid; format: physicochemical; conditions: estimate, no measurement described
Description: As PBS buffer (pH 7.4) is used in the experiments and the carboxylic acid in reduced phyllochlorin (and the same carboxy group in other related chlorins) is estimated to have a pKa of less than 5, reduced phyllochlorin in the PBS buffer will exist predominantly as the sodium and potassium salts with very little to no free acid.

[7] = Homo sapiens, SK-OV-3, light or radiation study, 660 nm LED panel, values marked *, read-out: Phototoxicity μM (IC90), measured by LED
[8] = 660 nm laser, viability 24 hours after activation, read-out: Phototoxicity μM (IC90)
[9] = SKOV3 cells, 24 hours incubation, no light activation

Row | Molecule | Dark toxicity μM (IC10) ([2]; human, 24 h) [µM] | IC90 [1, 8] [µM] | Dark toxicity μM (IC10) [2, 9] [µM] | Dark toxicity μM (IC10) [2] [µM] | also measured
1 | CCC1=C(C)c2cc3[nH]c(cc4nc(c(C)c5[nH]c(cc1n2)c(C)c5C(=O)O)[C@@H](CCC(=O)O)[C@@H]4C)c(C)c3CC [Compound 36, Reduced Chlorin e4] | 12.200 |  |  |  | IC90 ([1]; Homo sapiens, SK-OV-3, light or radiation study, 660 nm laser, viability 24 hours after activation, read-out: Phototoxicity μM (IC90)): 4.36 µM
2 | CCC1=C(C)c2cc3[nH]c(cc4nc(c5c6[nH]c(cc1n2)c(C)c6C(=O)OC5)[C@@H](CCC(=O)O)[C@@H]4C)c(C)c3CC [Compound 39, Reduced Chlorin K] | 6.613 |  |  |  | IC90 [1, 7]: 0.141 µM
3 | CCC1=C(C)c2cc3[nH]c(cc4nc(c5c6[nH]c(cc1n2)c(C)c6C(=O)OC5)[C@@H](CCC(=O)N(C)CCCS[C@@H]1O[C@H](CO)[C@@H](O)[C@H](O)[C@H]1O)[C@@H]4C)c(C)c3CC [Compound 40, Reduced Chlorin K β-D-1-thioglucose-N-methylpropylamide] | 3.222 |  |  |  | IC90 [1, 7]: 0.229 µM
4 | C=Cc1c(C)c2cc3nc(c(C)c4[nH]c(cc5nc(cc1[nH]2)C(C)=C5CC)c(C)c4C(=O)O)[C@@H](CCC(=O)O)[C@@H]3C [chlorin e4, Chlorin e4] |  |  |  |  | effect against indomethacin-induced gastric lesions [3]: protective effect; effect against TAA- or CCl4-induced acute liver injuries [4]: protective effect
5 | Phyllochlorin free acid [reference compound] |  | 0.43 | 13.50 |  | 
6 | Phyllochlorin sodium salt [reference compound] |  | 0.35 | 21.96 |  | 
7 | Reduced Phyllochlorin Methyl Ester [Compound 6] |  | 0.371 |  | 11.650 | 
8 | Reduced Phyllochlorin N-(2-(2-(2-picolinylethoxy)ethoxy)ethyl)-N-methyl-3-amide chloride [Compound 28] |  |  | 1.510 |  | IC90 ([1]; 660 nm LED panel, values marked *, read-out: Phototoxicity μM (IC90), measured by LED): 0.0326 µM
9 | Reduced Phyllochlorin N-(2-(2-hydroxyethoxy)ethyl)-N-methylpropylamide [Compound 7] |  | 0.036 |  | 26.100 | 
10 | Reduced Phyllochlorin [Compound 1] |  | 0.176 |  | 10.450 | increase in phototoxicity of meso-compound compared to non-meso analogue ([1]; vs phyllochlorin free acid / phyllochlorin sodium salt): 2.4 fold; Dark toxicity compared to non-meso analogue [2]: largely unaffected; clinical signs of acute toxicity (squinting, piloerection, loss of motility, general behaviour) [5]: safe for injection; pKa of the carboxylic acid (estimated) [6]: less than 5
